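The compound was tested at five concentrations on cells cultured in 96-well plates, with a 48-hour exposure period. The concentration for 50% growth inhibition is given as GI50.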 Active and inactive are the calls of the source. Cut-off read from the data, not from the text of the source: active = GI50 up to about 1.1 µM and inactive = higher.
How the values were obtained:
Assay in all cases: DTP human tumour cell line panel, 48 h
COLO 205 = tested on: COLO 205
PC-3 = tested on: PC-3
NCI/ADR-RES = tested on: NCI/ADR-RES
MDA-N = tested on: MDA-N
KM12 = tested on: KM12
CCRF-CEM = tested on: CCRF-CEM
OVCAR-4 = tested on: OVCAR-4
OVCAR-8 = tested on: OVCAR-8
U-251 = tested on: U-251
SK-MEL-2 = tested on: SK-MEL-2
ACHN = tested on: ACHN
UACC-62 = tested on: UACC-62
SF-268 = tested on: SF-268
Hs-578T = tested on: Hs-578T
SK-OV-3 = tested on: SK-OV-3
SR = tested on: SR
NCI-H522 = tested on: NCI-H522
MCF7 = tested on: MCF7
Malme-3M = tested on: Malme-3M
T47D = tested on: T47D
NCI-H460 = tested on: NCI-H460
SW-620 = tested on: SW-620
K562 = tested on: K562
HCT-116 = tested on: HCT-116
786-0 = tested on: 786-0
SK-MEL-5 = tested on: SK-MEL-5
CAKI-1 = tested on: CAKI-1
HCC 2998 = tested on: HCC 2998
MDA-MB-435 = tested on: MDA-MB-435
LOX IMVI = tested on: LOX IMVI
UO-31 = tested on: UO-31
SNB-19 = tested on: SNB-19
TK-10 = tested on: TK-10
SK-MEL-28 = tested on: SK-MEL-28
A498 = tested on: A498
RPMI-8226 = tested on: RPMI-8226
DU-145 = tested on: DU-145
HT-29 = tested on: HT-29
SN12C = tested on: SN12C
HL-60 = tested on: HL-60
SF-295 = tested on: SF-295
UACC-257 = tested on: UACC-257
NCI-H23 = tested on: NCI-H23
HOP-92 = tested on: HOP-92
SNB-75 = tested on: SNB-75
HCT-15 = tested on: HCT-15
MDA-MB-231 = tested on: MDA-MB-231
A549 = tested on: A549
NCI-H226 = tested on: NCI-H226
SF-539 = tested on: SF-539
BT-549 = tested on: BT-549
RXF 393 = tested on: RXF 393
OVCAR-3 = tested on: OVCAR-3
HOP-62 = tested on: HOP-62
EKVX = tested on: EKVX
M14 = tested on: M14

For `OC1CC2CCCN(CCc3c1[nH]c1ccccc31)C2` (stereo not drawn), the GI50 (COLO 205) was > 100 µM (inactive), the GI50 (PC-3) was > 100 µM (inactive) and the GI50 (NCI/ADR-RES) was > 100 µM (inactive). The GI50 (MDA-N) was > 100 µM (inactive), the GI50 (KM12) was > 100 µM (inactive) and the GI50 (CCRF-CEM) was > 100 µM (inactive). For the same compound, the GI50 (OVCAR-4) was > 100 µM (inactive), the GI50 (OVCAR-8) was > 100 µM (inactive) and the GI50 (U-251) was > 100 µM (inactive). The GI50 (SK-MEL-2) was > 100 µM (inactive), the GI50 (ACHN) was > 100 µM (inactive) and the GI50 (UACC-62) was 86.7 µM (inactive). For the same compound, the GI50 (SF-268) was > 100 µM (inactive), the GI50 (Hs-578T) was > 100 µM (inactive) and the GI50 (SK-OV-3) was > 100 µM (inactive). The GI50 (SR) was 97.1 µM (inactive), the GI50 (NCI-H522) was > 100 µM (inactive) and the GI50 (MCF7) was > 100 µM (inactive). For the same compound, the GI50 (Malme-3M) was > 100 µM (inactive), the GI50 (T47D) was > 100 µM (inactive) and the GI50 (NCI-H460) was > 100 µM (inactive). The GI50 (SW-620) was > 100 µM (inactive), the GI50 (K562) was > 100 µM (inactive) and the GI50 (HCT-116) was > 100 µM (inactive). The GI50 (786-0) was > 100 µM (inactive), the GI50 (SK-MEL-5) was 47.3 µM (inactive) and the GI50 (CAKI-1) was > 100 µM (inactive). For the same compound, the GI50 (HCC 2998) was > 100 µM (inactive), the GI50 (MDA-MB-435) was > 100 µM (inactive) and the GI50 (LOX IMVI) was > 100 µM (inactive). The GI50 (UO-31) was > 100 µM (inactive), the GI50 (SNB-19) was > 100 µM (inactive) and the GI50 (TK-10) was > 100 µM (inactive). The GI50 (SK-MEL-28) was > 100 µM (inactive), the GI50 (A498) was > 100 µM (inactive) and the GI50 (RPMI-8226) was > 100 µM (inactive). For the same compound, the GI50 (DU-145) was > 100 µM (inactive), the GI50 (HT-29) was > 100 µM (inactive) and the GI50 (SN12C) was > 100 µM (inactive). The GI50 (HL-60) was > 100 µM (inactive), the GI50 (SF-295) was > 100 µM (inactive) and the GI50 (UACC-257) was 67.6 µM (inactive). The GI50 (NCI-H23) was > 100 µM (inactive), the GI50 (HOP-92) was > 100 µM (inactive) and the GI50 (SNB-75) was > 100 µM (inactive). For the same compound, the GI50 (HCT-15) was over 100 µM, the GI50 (MDA-MB-231) was 89.3 µM (inactive) and the GI50 (A549) was > 100 µM (inactive). For the same compound, the GI50 (NCI-H226) was > 100 µM (inactive), the GI50 (SF-539) was > 100 µM (inactive) and the GI50 (BT-549) was 38.3 µM (inactive).
With `Nc1ccc2c(c1)C(=O)c1c(F)cccc1-2` the GI50 (COLO 205) was 44.3 µM (inactive), the GI50 (PC-3) was 31.2 µM (inactive) and the GI50 (NCI/ADR-RES) was 35.6 µM (inactive). For the same compound, the GI50 (RXF 393) was 42.2 µM (inactive), the GI50 (OVCAR-3) was 25.9 µM (inactive) and the GI50 (MDA-N) was 93.3 µM (inactive). For the same compound, the GI50 (KM12) was 40.5 µM (inactive), the GI50 (CCRF-CEM) was 15 µM (inactive) and the GI50 (OVCAR-8) was 43.1 µM (inactive). For the same compound, the GI50 (U-251) was 53.1 µM (inactive), the GI50 (SK-MEL-2) was 81.7 µM (inactive) and the GI50 (ACHN) was 34.1 µM (inactive). The GI50 (UACC-62) was 32 µM (inactive), the GI50 (SF-268) was 17.9 µM (inactive) and the GI50 (Hs-578T) was 27.9 µM (inactive). For the same compound, the GI50 (SK-OV-3) was 85.7 µM (inactive), the GI50 (NCI-H522) was 34.5 µM (inactive) and the GI50 (MCF7) was 10.1 µM (inactive). For the same compound, the GI50 (Malme-3M) was 38.4 µM (inactive), the GI50 (T47D) was 63.8 µM (inactive) and the GI50 (NCI-H460) was 31 µM (inactive). The GI50 (SW-620) was 34.5 µM (inactive), the GI50 (HCT-116) was 30.5 µM (inactive) and the GI50 (786-0) was 29.4 µM (inactive). The GI50 (SK-MEL-5) was 25.5 µM (inactive), the GI50 (CAKI-1) was 23.6 µM (inactive) and the GI50 (HCC 2998) was 40 µM (inactive). The GI50 (MDA-MB-435) was > 100 µM (inactive), the GI50 (LOX IMVI) was 41.6 µM (inactive) and the GI50 (UO-31) was 20.8 µM (inactive). The GI50 (SNB-19) was 53.1 µM (inactive), the GI50 (TK-10) was 47.2 µM (inactive) and the GI50 (SK-MEL-28) was 34.2 µM (inactive). For the same compound, the GI50 (HOP-62) was 30.3 µM (inactive), the GI50 (A498) was > 100 µM (inactive) and the GI50 (EKVX) was 0.656 µM (active). The GI50 (RPMI-8226) was 20.4 µM (inactive), the GI50 (DU-145) was 45 µM (inactive) and the GI50 (HT-29) was 27.7 µM (inactive). The GI50 (SN12C) was 39.1 µM (inactive), the GI50 (SF-295) was 46 µM (inactive) and the GI50 (M14) was 50.4 µM (inactive). The GI50 (UACC-257) was > 100 µM (inactive), the GI50 (NCI-H23) was 61.8 µM (inactive) and the GI50 (HOP-92) was 15.5 µM (inactive). The GI50 (SNB-75) was 10.4 µM (inactive), the GI50 (HCT-15) was 39.3 µM and the GI50 (MDA-MB-231) was 45.6 µM (inactive). For the same compound, the GI50 (A549) was 96.6 µM (inactive), the GI50 (NCI-H226) was 27.7 µM (inactive) and the GI50 (SF-539) was 24.5 µM (inactive). For the same compound, the GI50 (BT-549) was 39.3 µM (inactive).
